This note sets out measurements from patent US20090036422A1 (priority 2007, published 2009).

Structures can show the parent of a compound that is named as a salt.

The test addresses T1, human orexin-2 (hOX2) receptor (Homo sapiens, UniProt O43614).
T1 construct: expressed in transfected cells
T1 sequence (O43614 1-444): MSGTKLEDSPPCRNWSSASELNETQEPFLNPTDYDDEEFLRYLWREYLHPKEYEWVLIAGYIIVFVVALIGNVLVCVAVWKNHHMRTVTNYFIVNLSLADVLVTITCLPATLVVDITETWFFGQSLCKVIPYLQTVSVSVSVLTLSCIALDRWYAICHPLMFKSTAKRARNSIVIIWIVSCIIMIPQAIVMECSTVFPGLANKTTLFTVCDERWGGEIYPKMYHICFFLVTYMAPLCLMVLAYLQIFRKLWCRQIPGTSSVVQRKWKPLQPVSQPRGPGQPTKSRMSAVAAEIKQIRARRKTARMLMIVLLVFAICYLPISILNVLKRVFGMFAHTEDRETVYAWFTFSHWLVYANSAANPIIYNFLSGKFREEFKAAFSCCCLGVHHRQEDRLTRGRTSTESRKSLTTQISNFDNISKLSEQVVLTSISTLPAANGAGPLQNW
The test can be described thus: Intracellular Ca2+ mobilization assay (FLIPR), CHO(dHFr-) cells expressing hOX2, orexin-A at EC80 as agonist. It is filed as cell-based. The following applies: Kb=IC50/(1+[A]/EC50); CHO(dHFr-)-OX2R cells, antagonist applied 25 min before orexin-A EC80. The essentials:
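Fluo-4-loaded CHO(dHFr−) cells stably expressing hOX2 were preincubated 25 min at 37 °C with antagonist (11 concentrations, 0.0001–10 μM), then challenged with orexin-A at its daily-determined EC80. Peak fluorescence over basal read by FLIPR; IC50 from Hill fit, Kb via Kb=IC50/(1+[A]/EC50).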
Background: A change in cytosolic calcium serves as a functional read-out for many receptors and channels.

A word on the Kb: it is the affinity of an antagonist, worked out from how it opposes an agonist. A high value points to a less potent antagonist. The compound `Cc1ccc(N(CCc2ccc(C(F)(F)F)cc2)C(=O)[C@@H](N)c2ccccc2)cc1` [Example 146, (S)-2-Amino-2-phenyl-N-p-tolyl-N-[2-(4-trifluoromethyl-phenyl)-ethyl]-acetamide] returned a Kb of 0.0335 µM.

In the case of `COc1ccc(N(CCc2ccc(C(F)(F)F)cc2)C(=O)C(N)c2ccccc2OC)cc1OC` (centres unmarked) [Example 35, 2-Amino-N-(3,4-dimethoxy-phenyl)-2-(2-methoxy-phenyl)-N-[2-(4-trifluoromethyl-phenyl)-ethyl]-acetamide], the antagonist dissociation constant (Kb) came out at 0.0088 µM.

Turning to `Cc1ccc(N(CCc2cccc(F)c2)C(=O)[C@@H](N)c2ccccc2)cc1C` [Example 182, (S)-2-Amino-N-(3,4-dimethyl-phenyl)-N-[2-(3-fluoro-phenyl)-ethyl]-2-phenyl-acetamide hydrochloride], the antagonist dissociation constant (Kb) was 0.0283 µM.

`COc1ccc(N(CCc2ccc(C(F)(F)F)cc2)C(=O)[C@@H](NC2COC2)c2ccccc2)cc1OC` [Example 72, (S)—N-(3,4-Dimethoxy-phenyl)-2-(oxetan-3-ylamino)-2-phenyl-N-[2-(4-trifluoromethyl-phenyl)-ethyl]-acetamide] came in with a Kb of 0.0023 µM.

Turning to `Cc1ccc(N(CCc2ccccc2C)C(=O)[C@@H](N)c2ccccc2)cc1C` [Example 185, (S)-2-Amino-N-(3,4-dimethyl-phenyl)-2-phenyl-N-(2-o-tolyl-ethyl)-acetamide hydrochloride], the antagonist dissociation constant (Kb) amounted to 0.0305 µM.

In turn, `Cc1ccc(CCN(C(=O)C(NC(CO)C(C)C)c2ccccc2)c2ccc(C)c(C)c2)cc1` (centres unmarked) [Example 123, N-(3,4-Dimethyl-phenyl)-2-(1-hydroxymethyl-2-methyl-propylamino)-2-phenyl-N-(2-p-tolyl-ethyl)-acetamide] came in with a Kb of 0.0727 µM.

`COc1cccc(N(CCc2ccc(C(F)(F)F)cc2)C(=O)[C@@H](N)c2ccccc2)c1` [Example 151, (S)-2-Amino-N-(3-methoxy-phenyl)-2-phenyl-N-[2-(4-trifluoromethyl-phenyl)-ethyl]-acetamide] returned a Kb of 0.0112 µM.

With `COc1ccccc1C(N)C(=O)N(CCc1ccc(C(F)(F)F)cc1)c1ccc2c(c1)OC(F)(F)C(F)(F)O2` (centres unmarked) [Example 44, 2-Amino-2-(2-methoxy-phenyl)-N-(2,2,3,3-tetrafluoro-2,3-dihydro-benzo[1,4]dioxin-6-yl)-N-[2-(4-trifluoromethyl-phenyl)-ethyl]-acetamide], the Kb amounted to 0.0069 µM.

As to `COCC(C)NC(C(=O)N(CCc1ccc(C)cc1)c1ccc(C)c(C)c1)c1ccccc1` (centres unmarked) [Example 120, N-(3,4-Dimethyl-phenyl)-2-(2-methoxy-1-methyl-ethylamino)-2-phenyl-N-(2-p-tolyl-ethyl)-acetamide], the Kb is 0.0446 µM.

Compound `N[C@H](C(=O)N(CCc1ccc(F)cc1)c1ccc2c(c1)OCC2)c1ccccc1` [Example 243, (S)-2-Amino-N-(2,3-dihydro-benzofuran-6-yl)-N-[2-(4-fluoro-phenyl)-ethyl]-2-phenyl-acetamide hydrochloride] registered a Kb of 0.0604 µM.

In the case of `COc1cccc(N(CCc2ccc(C(F)(F)F)cc2)C(=O)[C@@H](N)c2ccc(F)cc2)c1` [Example 160], the antagonist dissociation constant (Kb) was 0.0291 µM.

`Cc1ccc(CCN(C(=O)C(NCC(C)O)c2ccccc2)c2ccc(C)c(C)c2)cc1` (centres unmarked) [Example 121, N-(3,4-Dimethyl-phenyl)-2-(2-hydroxy-propylamino)-2-phenyl-N-(2-p-tolyl-ethyl)-acetamide] showed a Kb of 0.0109 µM.

The compound `COc1ccc(C)c(N(CCc2ccc(C(F)(F)F)cc2)C(=O)C(N)c2ccccc2)c1` (centres unmarked) [Example 59, 2-Amino-N-(5-methoxy-2-methyl-phenyl)-2-phenyl-N-[2-(4-trifluoromethyl-phenyl)-ethyl]-acetamide] showed a Kb of 0.0143 µM.

In turn, `NC(C(=O)N(CCc1ccc(C(F)(F)F)cc1)c1ccc(OC(F)F)cc1)c1ccccc1` (centres unmarked) [Example 105, 2-Amino-N-(4-difluoromethoxy-phenyl)-2-phenyl-N-[2-(4-trifluoromethyl-phenyl)-ethyl]-acetamide] registered an antagonist equilibrium constant (Kb) of 0.0414 µM.

`Cc1ccc(CCN(C(=O)[C@@H](NC(=O)[C@@H](N)c2ccccc2)c2ccccc2)c2ccc(C)c(C)c2)cc1` [Example 249, (S)-2-((S)-2-Amino-2-phenyl-acetylamino)-N-(3,4-dimethyl-phenyl)-2-phenyl-N-(2-p-tolyl-ethyl)-acetamide] registered a Kb of 0.082 µM.

Turning to `Cc1ccc(CCN(C(=O)C(NC(C)CO)c2ccccc2)c2ccc(C)c(C)c2)cc1` (centres unmarked) [Example 122, N-(3,4-Dimethyl-phenyl)-2-(2-hydroxy-1-methyl-ethylamino)-2-phenyl-N-(2-p-tolyl-ethyl)-acetamide], the Kb amounted to 0.0225 µM.

In turn, `Cc1ccc(N(CCc2ccc(Cl)cc2)C(=O)C(N)c2ccccc2)cc1C` (centres unmarked) [Example 93, 2-Amino-N-[2-(4-chloro-phenyl)-ethyl]-N-(3,4-dimethyl-phenyl)-2-phenyl-acetamide] gave an antagonist equilibrium constant (Kb) of 0.0888 µM.

For `Cc1ccc(CCN(C(=O)[C@@H](NC(=O)CN)c2ccccc2)c2ccc(C)c(C)c2)cc1` [Example 248, (S)-2-(2-Amino-acetylamino)-N-(3,4-dimethyl-phenyl)-2-phenyl-N-(2-p-tolyl-ethyl)-acetamide], the Kb was determined as 0.0353 µM.

Regarding `CCC(O)CNC(C(=O)N(CCc1ccc(C)cc1)c1ccc(C)c(C)c1)c1ccccc1` (centres unmarked) [Example 131, N-(3,4-Dimethyl-phenyl)-2-(2-hydroxy-butylamino)-2-phenyl-N-(2-p-tolyl-ethyl)-acetamide], the antagonist dissociation constant (Kb) came to 0.022 µM.

Compound `CNC(C(=O)N(CCc1ccc(C(F)(F)F)cc1)c1ccc(OC)c(OC)c1)c1ccccc1` (centres unmarked) [Example 53, N-(3,4-Dimethoxy-phenyl)-2-methylamino-2-phenyl-N-[2-(4-trifluoromethyl-phenyl)-ethyl]-acetamide] registered an antagonist equilibrium constant (Kb) of 0.0305 µM.

Turning to `Cc1ccc(CCN(C(=O)C(N)c2ccccc2)c2ccc(F)c(C)c2)cc1` (centres unmarked) [Example 88, 2-Amino-N-(4-fluoro-3-methyl-phenyl)-2-phenyl-N-(2-p-tolyl-ethyl)-acetamide], the antagonist equilibrium constant (Kb) turned out to be 0.0819 µM.

`Cc1ccc(N(CCc2ccc(C)c(F)c2)C(=O)[C@@H](N)c2ccccc2)cc1C` [Example 190, (S)-2-Amino-N-(3,4-dimethyl-phenyl)-N-[2-(3-fluoro-4-methyl-phenyl)-ethyl]-2-phenyl-acetamide hydrochloride]: the Kb stood at 0.0091 µM.

With `COc1ccc(N(CCc2ccc(C(F)(F)F)cc2)C(=O)C(N)c2cccc(F)c2)cc1OC` (centres unmarked) [Example 85, 2-Amino-N-(3,4-dimethoxy-phenyl)-2-(3-fluoro-phenyl)-N-[2-(4-trifluoromethyl-phenyl)-ethyl]-acetamide], the Kb turned out to be 0.0074 µM.

Consider `COc1ccc(N(CCc2ccc(C(F)(F)F)cc2)C(=O)C(O)c2ccc(Cl)cc2)cc1OC` (centres unmarked) [Example 30, 2-(4-chlorophenyl)-N-(3,4-dimethoxyphenyl)-2-hydroxy-N-{2-[4-(trifluoromethyl)phenyl]ethyl}acetamide], for which the Kb is 0.0757 µM.

`CC(=O)NCCNC(C(=O)N(CCc1ccc(C)cc1)c1ccc(C)c(C)c1)c1ccccc1` (centres unmarked) [Example 126, 2-(2-Acetylamino-ethylamino)-N-(3,4-dimethyl-phenyl)-2-phenyl-N-(2-p-tolyl-ethyl)-acetamide] came in with a Kb of 0.0086 µM.

`COc1ccccc1CCN(C(=O)[C@@H](N)c1ccccc1)c1ccc(C)c(C)c1` [Example 194, (S)-2-Amino-N-(3,4-dimethyl-phenyl)-N-[2-(2-methoxy-phenyl)-ethyl]-2-phenyl-acetamide hydrochloride] had a Kb of 0.0052 µM.

In turn, `COc1ccc(N(CCc2ccc(C(F)(F)F)cc2)C(=O)C(N)c2ccccc2)cc1` (centres unmarked) [Example 75, 2-Amino-N-(4-methoxy-phenyl)-2-phenyl-N-[2-(4-trifluoromethyl-phenyl)-ethyl]-acetamide] came in with an antagonist equilibrium constant (Kb) of 0.0523 µM.

With `COc1ccc(N(CCc2ccc(C(F)(F)F)cc2)C(=O)[C@@H](N)c2ccccc2)cc1OC` [Example 173, (S)-2-Amino-N-(3,4-dimethoxy-phenyl)-2-phenyl-N-[2-(4-trifluoromethyl-phenyl)-ethyl]-acetamide hydrochloride], the antagonist equilibrium constant (Kb) amounted to 0.0011 µM.

Turning to `Cc1ccc(N(CCc2ccc(C(F)(F)F)cc2)C(=O)[C@@H](O)c2ccc(F)cc2)cc1C` [Example 161, (S)—N-(3,4-Dimethyl-phenyl)-2-(4-fluoro-phenyl)-2-hydroxy-N-[2-(4-trifluoromethyl-phenyl)-ethyl]-acetamide], the Kb stood at 0.0908 µM.

Compound `CN[C@H](C(=O)N(CCc1ccc(C(F)(F)F)cc1)c1ccc(C)c(C)c1)c1ccccc1OC` [Example 157, (S)—N-(3,4-Dimethyl-phenyl)-2-(2-methoxy-phenyl)-2-methylamino-N-[2-(4-trifluoromethyl-phenyl)-ethyl]-acetamide] returned a Kb of 0.0322 µM.

Compound `COc1ccc(N(CCc2ccc(C(F)(F)F)cc2)C(=O)C(N)c2ccccc2)cc1Cl` (centres unmarked) [Example 66, 2-Amino-N-(3-chloro-4-methoxy-phenyl)-2-phenyl-N-[2-(4-trifluoromethyl-phenyl)-ethyl]-acetamide] yielded an antagonist dissociation constant (Kb) of 0.013 µM.

As to `Cc1cc(N(CCc2ccc(C(F)(F)F)cc2)C(=O)C(N)c2ccccc2)ccc1F` (centres unmarked) [Example 83, 2-Amino-N-(4-fluoro-3-methyl-phenyl)-2-phenyl-N-[2-(4-trifluoromethyl-phenyl)-ethyl]-acetamide], the Kb came to 0.0698 µM.
